# Earlier results in patent US20230293063A1 (SOMNUS SCIENTIFIC LTD, priority 2020, published 2023).
smiles,measurement,setting,value
"CC(C)c1cccc(C(C)C)c1O [propofol, 2,6-diisopropylphenol]",fraction metabolized in the liver,"Smits, Annaert and Allegaert, 2017",90%
same,free fraction of the total drug concentration,blood,2%
